Test results as given in patent US20190083521A1, “COMBINATION THERAPY FOR TREATING CANCER” (Epizyme, Inc., priority 2014, published 2019).

Columns and labels:
Type in all cases: cell-based, human
SKM-1 cells = experiment: Example 6 combination screen: 300 nM EPZ-5676 pre-treatment, second compound 72 h, ATPLite, IC50 shift; conditions: SKM-1 cells; 300 nM EPZ-5676 pre-treatment (4 + 3 days) vs DMSO, then 2nd compound 72 h; ATPLite; IC50 shift of 2nd compound
Procedure: (§1) Cells were then equilibrated in incubators for 24 hours before treatment with a second compound. Treated assay plates were incubated with a second compound for 72 hours. After this time, plates were developed for endpoint analysis using ATPLite to measure ATP content, which is used as an indicator of cell viability.
(§2) “N/D” means that IC50 of the second compound could not be determined for both conditions.

MOLM-13 cells = experiment: as above; conditions: 300 nM EPZ-5676 pre-treatment (4 + 3 days) vs DMSO, then 2nd compound 72 h, IC50 shift of 2nd compound
Procedure: as §1, §2

MV4-11 (MLL-AF4) cells = experiment: Combination proliferation assay with Compound A2 (CellTiter-Glo, Chou-Talalay CI); conditions: MV4-11 (MLL-AF4); 7 Day Cotreatment Model
Procedure: The acute myelogenous leukemia cell lines MV4-11 (MLL-AF4) and MOLM-13 (MLL-AF9) were obtained from American Type Culture Collection (ATCC; Rockville, Md.) and Deutsche Sammlung von Mikroorganismen and Zellkulturen (DSMZ; Braunschweig, Germany) respectively.
(§3) Studies were performed using MLL-rearranged cell lines in vitro to evaluate the anti-proliferative effect of a combination of two agents together on cell growth. Initial proliferation studies were performed to determine the IC50 of a given compound in each cell line. The cell counts were measured by ATP quantitation using the Promega Cell Titer Glo kit and luminescence values corresponded to the amount of ATP in a given well.
Compounds were evaluated for synergy in the co-treatment phase by testing the compounds in a concentration range which was bracketed around their IC50 values. The compounds were plated to a 96 well plate in a matrix format (FIG. 3) which includes increasing concentrations of each drug in the combination in a constant ratio, in addition to the effect of each compound alone in the study. Cells were seeded and grown in the log-linear phase for 3 or 7 days in the co-treatment phase. Minimum inhibition (DMSO alone) controls were used in each plate to calculate fraction affected (Fa) of a test well. DMSO concentration was kept at 0.1% v/v.
The drug combination analysis was performed utilizing the Chou-Talalay method Synergy was determined using the software package Calcusyn by Biosoft. The combination index (CI) is a quantitative term used to describe the level of synergy or antagonism in a given test system. A combination index less than one indicates synergy, and a CI greater than one indicates antagonism. Further, strong synergism is achieved when the CI value falls below 0.3.
The HP-D300 digital dispenser (Tecan) was used to dispense compounds in a combinatorial matrix. […] Cell viability was measured via ATP content using CellTiter-Glo® (Promega).
Viability was determined using CellTiter-Glo® (Promega).
as §3, with “Proliferation studies” for “Studies”, “MOLM-13, MV4-11 and SKM-1” for “MLL-rearranged”, “cancer cell killing” for “anti-proliferative”, “IC50 values” for “IC50”, “correspond” for “corresponded”
These studies were performed to evaluate both the combinatorial effect of compounds on cell killing and the durability of the effect by washing out one of the agents.
Compounds evaluated for synergy in the co-treatment phase were tested in a range which was bracketed around the IC50's. The compounds were plated to a 96 well plate in a matrix format which includes increasing concentrations of each drug in the combination in a constant ratio, in addition to the effect of each compound alone in the study. Cells were seeded and grown in the log-linear phase for 3 or 7 days in the cotreatment phase. Maximum and minimum inhibition (DMSO alone) controls were used in each plate to calculate fraction affected (Fa) of a test well. DMSO concentration was kept at 0.1% v/v. The drug combination analysis was performed utilizing the Chou-Talalay method. Synergy was determined using the software package Calcusyn by Biosoft. The combination index (CI) is the term used to describe the level of synergy or antagonism in a given test system. A combination index less than one indicates synergy, and a CI greater than one indicates antagonism.
The drug combination analysis was performed using the Chou-Talalay method. Graphs representing values of combination index (CI) versus Fractional effect (Fa) known as Fa-CI plots were generated and synergy was evaluated. Drug synergy was statistically defined by CI values less than 1, antagonism by CI>1 and additive effect by CI equal to 1.

| SMILES | Summary of Combination Studies: SKM-1 (SKM-1 cells) | Summary of Combination Studies: MOLM-13 (MOLM-13 cells) | Combination effect with Compound A2 (Table 4) (MV4-11 (MLL-AF4) cells) |
| --- | --- | --- | --- |
| Cc1sc2c(c1C)C(c1ccc(Cl)cc1)=N[C@@H](CC(N)=O)c1nnc(C)n1-2 [CPI-203] | Synergy (considered synergistic if the IC50 value of the second compound decreased by 2-fold or more when EPZ-5676 was added as compared to the DMSO control) | Synergy (considered synergistic if the IC50 value of the second compound decreased by 2-fold or more when EPZ-5676 was added as compared to the DMSO control) | – |
| O=C1c2ccccc2-c2nc3nonc3nc21 [SMER 3] | – | Synergy (considered synergistic if the IC50 value of the second compound decreased by 2-fold or more when EPZ-5676 was added as compared to the DMSO control) | – |
| Nc1ccccc1NC(=O)c1ccc(CNC(=O)OCc2cccnc2)cc1 [MS-275] | – | Synergy (considered synergistic if the IC50 value of the second compound decreased by 2-fold or more when EPZ-5676 was added as compared to the DMSO control) | – |
| O=C(Nc1ccccc1-c1cn2c(CN3CCNCC3)csc2n1)c1cnc2ccccc2n1 [SRT-1720] | – | Synergy (considered synergistic if the IC50 value of the second compound decreased by 2-fold or more when EPZ-5676 was added as compared to the DMSO control) | Synergy (Drug synergy was statistically defined by CI values less than 1) |
| O=C(/C=C/c1ccc(O)c(O)c1)OCCc1ccccc1 [CAPE] | Synergy (considered synergistic if the IC50 value of the second compound decreased by 2-fold or more when EPZ-5676 was added as compared to the DMSO control) | Synergy (considered synergistic if the IC50 value of the second compound decreased by 2-fold or more when EPZ-5676 was added as compared to the DMSO control) | – |
| COc1cc2c(NC3CCN(C4CCCCC4)CC3)nc(N3CCCN(C(C)C)CC3)nc2cc1OCCCN1CCCCC1 [UNC 0646] | Synergy (considered synergistic if the IC50 value of the second compound decreased by 2-fold or more when EPZ-5676 was added as compared to the DMSO control) | Synergy (considered synergistic if the IC50 value of the second compound decreased by 2-fold or more when EPZ-5676 was added as compared to the DMSO control) | – |
| COc1ccc(-c2ccc3c(N4CCOCC4)nc(N4C[C@@H](C)O[C@@H](C)C4)nc3n2)cc1CO [KU 0063794] | Synergy (considered synergistic if the IC50 value of the second compound decreased by 2-fold or more when EPZ-5676 was added as compared to the DMSO control) | Synergy (considered synergistic if the IC50 value of the second compound decreased by 2-fold or more when EPZ-5676 was added as compared to the DMSO control) | – |
| CC(=O)OC[C@H]1O[C@@H]([S-])[C@H](OC(C)=O)[C@@H](OC(C)=O)[C@@H]1OC(C)=O.CCP(CC)CC.[Au+] [Auranofin] | – | Synergy (considered synergistic if the IC50 value of the second compound decreased by 2-fold or more when EPZ-5676 was added as compared to the DMSO control) | – |
| Cc1cccc(-c2[nH]c(C(C)(C)C)nc2-c2ccc3c(c2)OCO3)n1 [SB-505124] | – | Synergy (considered synergistic if the IC50 value of the second compound decreased by 2-fold or more when EPZ-5676 was added as compared to the DMSO control) | – |
| O=C(c1cn(Cc2cncn2Cc2ccc(Br)cc2)cc1-c1cccc2ccccc12)N1CCOCC1 [LB42708] | Synergy (considered synergistic if the IC50 value of the second compound decreased by 2-fold or more when EPZ-5676 was added as compared to the DMSO control) | Synergy (considered synergistic if the IC50 value of the second compound decreased by 2-fold or more when EPZ-5676 was added as compared to the DMSO control) | – |
| c1ccc([C@@H]2C[C@H]2NC2CCNCC2)cc1 [GSK-LSD1] | – | Synergy (considered synergistic if the IC50 value of the second compound decreased by 2-fold or more when EPZ-5676 was added as compared to the DMSO control) | – |
| COc1ccc(C2=N[C@@H](c3ccc(Cl)cc3)[C@@H](c3ccc(Cl)cc3)N2C(=O)N2CCNC(=O)C2)c(OC(C)C)c1 [Nutlin-3] | – | Synergy (considered synergistic if the IC50 value of the second compound decreased by 2-fold or more when EPZ-5676 was added as compared to the DMSO control) | – |
| Clc1ccc(C2(c3ccc(-c4cn[nH]c4)cc3)CCNCC2)cc1 [AT7867] | – | Synergy (considered synergistic if the IC50 value of the second compound decreased by 2-fold or more when EPZ-5676 was added as compared to the DMSO control) | – |
| N.N.[Cl][Pt][Cl] [Cisplatin] | – | Synergy (considered synergistic if the IC50 value of the second compound decreased by 2-fold or more when EPZ-5676 was added as compared to the DMSO control) | – |
